Data: US20260132128A1, “COMPOUND FOR RECOVERING P53 MUTATION FUNCTION AND USE THEREOF” (SHENZHEN ZHONGGE BIOLOGICAL TECHNOLOGY CO., LTD., priority 2022, published 2026)
Marks after values point to notes of the source that are not given here.

Columns and labels:
NUGC-3 cells = assay: NUGC-3 cell proliferation assay (CTG); format: cell-based, human; details: for GI50: Homo sapiens, NUGC-3, 144 h, 6 days, CTG; for Compound GI50 (nM)/Reference compound GI50 (nM): multiple ratio of GI50 of the compound to the reference compound
Outline: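 GI50 derived by variable-slope regression of percent inhibition (normalized to blank and 0.1% DMSO controls) from CTG luminescence. Compound was given as 10 threefold dilutions, highest final 10 μM, to overnight-seeded NUGC-3 cells (250/well) for 6 days, 37° C, 5% CO2.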

BxPC-3 cells = assay: BxPC-3 cell proliferation test (CTG); format: cell-based; details: Homo sapiens, 144 h, 6 days
Procedure: To detect the inhibitory effects of the aforementioned compounds on the proliferation ability of BxPC-3 cells, 125 BxPC-3 cells (ATCC®CRL-1687) were seeded into a 384-well plate (Corning 3765), 35 μL per well, and placed in a constant temperature incubator at 37° C. and 5% CO2 overnight. Then, 40 nL of the compound was added to the 384-well plate using an Echo 655 Liquid Handler, with a maximum final concentration of 10 μM, 1:3 serial dilution, and in a total of 10 doses. Incubation was performed at 37° C., 5% CO2 for 6 days. The plate was taken out from the incubator and equilibrated at room temperature for 10 minutes. 20 μL of CTG (Promage G7572) was added to each well of the plate according to the platemap. The plate was centrifuged at 1000 rpm for 1 minute. The lysis of cells was induced by mixing on a shaker for 2 minutes. The plate was centrifuged at 1000 rpm for 1 minute. Incubation was performed at room temperature for 10 minutes to stabilize luminescence signals. Luminescence values were recorded by Envision (PerkinElmer 2105-0020). GraphPad 9.0 was used to fit the inhibition rate and compound concentration into a nonlinear regression curve (dose response-variable slope) to calculate GI50, inhibition rate={1−(A−B)/(C−B)}*100%, A=signal value of compound; B=average signal of blank control; C=average signal of negative control (wherein the negative control was 0.1% DMSO).

p53 Y220C [1] = molecular target: T1, p53 Y220C (Homo sapiens, UniProt P04637, P309S/R273H/Y220C); assay: DNA binding test (HTRF): binding of P53Y220C protein to DNA; format: biochemical; details: HTRF, activation of p53 Y220C (aa 94-312) binding to biotin DNA
T1 construct: a truncated mutant containing only amino acids 94-312 of p53; made in house; host or cells: E. coli

p53 Y220C [2] = molecular target: T2, p53 Y220C (Homo sapiens, UniProt P04637, Y220C); assay: as above; format: biochemical; details: multiple ratio of EC50 of the compound to the reference compound, DNA binding test
T2 construct: a truncated mutant containing only amino acids 94-312 of p53; made in house; host or cells: E. coli

[3] = Caco-2 cell permeability test; format: in vitro ADME; details: human, pH 7.4, Caco-2, 10 μM; for Papp A→B at 120 min, 10 μM: A to B; for Papp B→A at 120 min, 10 μM: B to A
Procedure: Caco-2 cells (ATCC, Cat. No. HTB-37) were inoculated to a 96-well plate (Corning HTS Transwell, Cat. No. 3391) at 1.25×10^5/cm2, and the culture medium (DMEM+10% FBS+1% Penicillin-Streptomycin Liquid (100×)+1% NEAA) was replaced every 3 to 4 days. The plate was placed in an incubator at 37° C. with 5% CO2 until a confluent cell monolayer was formed after 21 to 28 days. Before the transport experiment, the culture medium was removed from the cell culture plate, and the plate was washed twice with pre-warmed HBSS buffer (10 mM HEPES, pH 7.4), and 100 μL of HBSS buffer was added to each well. After incubation at 37° C. for 30 minutes, the TEER value was measured using a cell resistance meter (Millicell-ERS2) to confirm the integrity and density of the monolayer cells. The HBSS buffer was discarded, the upper plate containing the cell monolayer membrane was transferred to the corresponding receiving plate, 10 mM test compound stock solution was diluted to a concentration of 10 μM with HBSS transport buffer containing 0.5% BSA, and it was added to the apical side (A side) and basolateral side (B side), respectively. Incubation was carried out for 120 min at 37° C., 5% CO2, and 95% relative humidity, and the permeation of the test compound from A side to B side or from B side to A side and the efflux rate of the compound were determined. The test compound and the reference compound were quantified by LC-MS/MS analysis based on the peak area ratio of analyte/internal standard. The apparent permeability coefficient Papp (cm/s) was calculated using the following formula:
[formula] • wherein, dCr/dt represented the functional relation between cumulative concentration of compound in receptor compartment and time; V represented the volume of solution in receptor compartment (0.1 mL at apical side, and 0.25 mL at basolateral side); A represented the transport surface area, i.e., the monolayer cell area was 0.0804 cm^2; CO represented the initial concentration of compound in donor compartment.
The efflux ratio was calculated using the following formula: […]
The percent recovery was calculated using the following formula:
[formula] [formula] • wherein, Vd represented the volume of donor compartment (0.1 mL on the apical side and 0.25 mL on the basolateral side); C and Cr represented the final concentrations of the transported compound in the donor and receptor compartment, respectively; Cc represented the compound concentration in cell lysate; Vc represented the volume of insert well (which was 0.1 mL in this experiment).

GI50 (BxPC-3 cells) | EC50 (p53 Y220C [1]) | efflux ratio at 120 min, 10 μM [3] | Papp A→B at 120 min, 10 μM [3] | Papp B→A at 120 min, 10 μM [3] | SMILES | GI50 (NUGC-3 cells) | Compound GI50 (nM)/Reference compound GI50 (nM) (NUGC-3 cells) | Compound EC50 (nM)/Reference compound EC50 (nM) (p53 Y220C [2])
< 1000 nM |  | 1.84 | 3.7 ×10⁻⁶ cm/s | 6.82 ×10⁻⁶ cm/s | CNC(=O)c1ccc(NCC#Cc2nc3c(NC4CC[C@@H](N5CC6(COC6)C5)C[C@@H]4F)cccn3c2CC(F)(F)F)c(OC2CC2)c1 (stereo partly shown) [Compound 57] |  | B (B: GI50 of the reference compound < GI50 of the compound ≤ 3.0 * GI50 of the reference compound) | B (B: EC50 of the reference compound<EC50 of the compound≤3.0*EC50 of the reference compound)
 | < 100 nM | 1.79 | 3.54 ×10⁻⁶ cm/s | 6.34 ×10⁻⁶ cm/s | CNC(=O)c1ccc(NCC#Cc2nc3c(NC4CCC(N5CCOCC5)C[C@@H]4F)cccn3c2CC(F)(F)F)c(OC)c1 (stereo partly shown) [Compound 44] |  | C (C: GI50 of the compound ≥ 3 * GI50 of the reference compound) | B (B: EC50 of the reference compound<EC50 of the compound≤3.0*EC50 of the reference compound)
 |  | 1.52 | 3.97 ×10⁻⁶ cm/s | 6.04 ×10⁻⁶ cm/s | COc1cc(C(=O)N(C)C)ccc1NCC#Cc1nc2c(NC3CC[C@@H](N4CC5(COC5)C4)C[C@@H]3F)cccn2c1CC(F)(F)F (stereo partly shown) [Compound 47] |  | C (C: GI50 of the compound ≥ 3 * GI50 of the reference compound) | B (B: EC50 of the reference compound<EC50 of the compound≤3.0*EC50 of the reference compound)
 |  | 1.72 | 2.16 ×10⁻⁶ cm/s | 3.72 ×10⁻⁶ cm/s | CNC(=O)c1ccc(NCC#Cc2nc3c(NC4CC[C@@H](N5CC6(CCC6)C5)C[C@@H]4F)cccn3c2CC(F)(F)F)c(OC)c1 (stereo partly shown) [Compound 42] | < 1000 nM | B (B: GI50 of the reference compound < GI50 of the compound ≤ 3.0 * GI50 of the reference compound) | B (B: EC50 of the reference compound<EC50 of the compound≤3.0*EC50 of the reference compound)
 | < 100 nM |  |  |  | [2H]C([2H])([2H])NC(=O)c1ccc(NCC#Cc2cc3c(NC4CCC(N5CC6(COC6)C5)CC4F)cccn3c2CC(F)(F)F)c(OC2CC2)c1 (stereo not shown) [Compound 76d] | < 1000 nM | A (A: GI50 of the compound ≤ GI50 of the reference compound) | A (A: EC50 of the compound≤EC50 of the reference compound)
 | < 100 nM |  |  |  | COCCNC(=O)c1ccc(NCC#Cc2nc3c(N[C@@H]4CC[C@@H](N5CC6(COC6)C5)C[C@@H]4F)cccn3c2CC(F)(F)F)c(OC)c1 [Compound 52] |  | C (C: GI50 of the compound ≥ 3 * GI50 of the reference compound) | A (A: EC50 of the compound≤EC50 of the reference compound)
 | 500 to 1000 nM |  |  |  | CNC(=O)c1ccc(NCC#Cc2nc3c(NC4CCN(C(C)C)CC4F)cccn3c2CC(F)(F)F)c(OC)c1 (stereo not shown) [Compound 20] | 1000 to 5000 nM | C (C: GI50 of the compound ≥ 3 * GI50 of the reference compound) | C (C: EC50 of the compound≥3*EC50 of the reference compound)
 | < 100 nM |  |  |  | COc1cc(C(=O)N2CCC2)ccc1NCC#Cc1nc2c(N[C@@H]3CC[C@@H](N4CC5(COC5)C4)C[C@@H]3F)cccn2c1CC(F)(F)F [Compound 51] |  | C (C: GI50 of the compound ≥ 3 * GI50 of the reference compound) | A (A: EC50 of the compound≤EC50 of the reference compound)

More lines, now with the values behind:

SMILES | GI50 (BxPC-3 cells) | EC50 (p53 Y220C [1]) | efflux ratio at 120 min, 10 μM [3] | Papp A→B at 120 min, 10 μM [3] | Papp B→A at 120 min, 10 μM [3] | GI50 (NUGC-3 cells) | Compound GI50 (nM)/Reference compound GI50 (nM) (NUGC-3 cells) | Compound EC50 (nM)/Reference compound EC50 (nM) (p53 Y220C [2])
COc1cc(S(C)(=O)=O)ccc1NCC#Cc1nc2c(NC3CCN(C)CC3)cccn2c1CC(F)(F)F [Compound 4] | < 1000 nM | 100 to 500 nM |  |  |  | 1000 to 5000 nM | B (B: GI50 of the reference compound < GI50 of the compound ≤ 3.0 * GI50 of the reference compound) | A (A: EC50 of the compound≤EC50 of the reference compound)
CNC(=O)c1ccc(NCC#Cc2nc3c(NC4CCN(C)CC4)nccn3c2CC(F)(F)F)c(OC)c1 [Compound 1] | 1000 to 5000 nM | 500 to 1000 nM |  |  |  | 1000 to 5000 nM | C (C: GI50 of the compound ≥ 3 * GI50 of the reference compound) | C (C: EC50 of the compound≥3*EC50 of the reference compound)
COc1cc(S(C)(=O)=O)ccc1NCC#Cc1nc2c(N[C@@H]3CCN(C)C[C@@H]3F)cccn2c1CC(F)(F)F [Compound 3] | < 1000 nM | 100 to 500 nM |  |  |  | < 1000 nM | B (B: GI50 of the reference compound < GI50 of the compound ≤ 3.0 * GI50 of the reference compound) | A (A: EC50 of the compound≤EC50 of the reference compound)
CNC(=O)c1ccc(NCC#Cc2nc3c(NC4CCOCC4)cccn3c2CC(F)(F)F)c(OC)c1 [Compound 8] | 1000 to 5000 nM | 500 to 1000 nM |  |  |  | 1000 to 5000 nM | C (C: GI50 of the compound ≥ 3 * GI50 of the reference compound) | C (C: EC50 of the compound≥3*EC50 of the reference compound)
CNC(=O)c1ccc(NCC#Cc2nc3c(N[C@H]4CC[C@H](N5CC6(COC6)C5)CC4)cccn3c2CC(F)(F)F)c(OC)c1 [Compound 9] | < 1000 nM | 100 to 500 nM |  |  |  | < 1000 nM | B (B: GI50 of the reference compound < GI50 of the compound ≤ 3.0 * GI50 of the reference compound) | B (B: EC50 of the reference compound<EC50 of the compound≤3.0*EC50 of the reference compound)
CNC(=O)c1ccc(NCC#Cc2nc3c(NC4CCS(=O)(=O)CC4)cccn3c2CC(F)(F)F)c(OC)c1 [Compound 10] | 1000 to 5000 nM | 100 to 500 nM |  |  |  | 1000 to 5000 nM | C (C: GI50 of the compound ≥ 3 * GI50 of the reference compound) | C (C: EC50 of the compound≥3*EC50 of the reference compound)
